One assay relates to S. aureus MRSA 2020. The experiment in a line: MIC on clinical strain. It counts as cell-based, Staphylococcus aureus. How it is done: (§1) Measurement of antibacterial activity was carried out on the strains of Staphylococcus aureus ATCC 29213 (museum strain), Staphylococcus epidermidis (clinical isolate), Micrococcus luteus (clinical isolate), Bacillus subtilis 168 (museum strain), Escherichia coli ATCC 25922 (museum strain), Salmonella typhimurium TA100 (museum strain), Pseudomonas aeruginosa ATCC 27853 (museum strain). A comparative assessment of the spectrum of antibacterial action on reference strains and clinical isolates of gram-positive microorganisms was carried out using a micromethod for determining the minimum inhibitory concentration (MIC) using serial dilutions in Mueller-Hinton broth using 96-well sterile plates.
(§2) The first lowest concentration of the antibiotic (from a series of successive dilutions), where bacterial growth is not visually determined, is considered to be the minimum inhibitory concentration (MIC).
(§3) For the preparation of inoculum (infectious material used for artificial contamination), intended for the study of antibacterial activity, was used a pure daily culture of bacteria grown on a dense nutrient medium (agar LB medium). In a sterile isotonic solution of sodium chloride, a suspension of microorganisms was prepared, adjusting the inoculum density to 0.5 according to the McFarland standard (1.5·10^8 CFU/ml). Then, the resulting inoculum was diluted to a concentration of 10^7 CFU/ml with LB-broth. The inoculum was used for 15 minutes after preparation; the purity of the bacterial strains was monitored before each experiment.
(§4) 100 μl of Muller-Hinton broth was added to the wells of each plate; the test base was introduced into the first well at a concentration of 128 μg/ml in a volume of 100 μl and its concentration was adjusted to 0.25 μg/ml by consecutive two-fold dilution. […] Each preparation in the experiment was titrated three times. […] In addition, the purity of nutrient media and solvents was monitored. The plates were incubated in a thermostat at […] for 24 hours.
(§5) The growth of cultures was assessed visually, comparing the growth of microorganisms in the presence of test compounds with the growth of culture without them.

The next assay has as its system S. aureus MRSA 1131. The assay is described as follows: MIC on clinical strain. It counts as cell-based, Staphylococcus aureus. How it is done: as §1, §2, §3, §4, §5
A further assay concerns S. aureus MRSA 1143. The assay is described as follows: MIC on clinical strain. Format: cell-based, Staphylococcus aureus. Here is the method: as §1, §2, §3, §4, §5
Another assay has as its system S. aureus MRSA 983. The experiment in a line: MIC on clinical strain. Format: cell-based, Staphylococcus aureus. Here is the method: as §1, §2, §3, §4, §5
The next assay has as its system S. aureus MRSA 1065. The assay is described as follows: MIC on clinical strain. It counts as cell-based, Staphylococcus aureus. Here is the method: as §1, §2, §3, §4, §5
In another assay the test system is S. aureus MRSA 967. The experiment in a line: MIC on clinical strain. Format: cell-based, Staphylococcus aureus. How it is done:
as §1, §2, §3, §4, §5

The subject of the next assay is S. aureus MRSA 1053. The assay is described as follows: MIC on clinical strain. Format: cell-based, Staphylococcus aureus. How it is done: as §1, §2, §3, §4, §5
A further assay has as its system S. aureus MRSA 1163. The assay is described as follows: MIC on clinical strain. Format: cell-based, Staphylococcus aureus. How it is done: as §1, §2, §3, §4, §5
The test system of the next assay is S. aureus MRSA 1130. The experiment in a line: MIC on clinical strain. It counts as cell-based, Staphylococcus aureus. How it is done: as §1, §2, §3, §4, §5
The test system of another assay is S. aureus MRSA 981. The experiment in a line: MIC on clinical strain. Format: cell-based, Staphylococcus aureus. How it is done:
as §1, §2, §3, §4, §5

A further assay deals with S. aureus MRSA 1173. The assay is described as follows: MIC on clinical strain. It counts as cell-based, Staphylococcus aureus. How it is done:
as §1, §2, §3, §4, §5

For a further assay, the system named is S. aureus MRSA 1168. The assay is described as follows: MIC on clinical strain. It counts as cell-based, Staphylococcus aureus. Here is the method: as §1, §2, §3, §4, §5
The subject of assay [1] is Bacillus subtilis 168 (museum strain). The assay is described as follows: MIC, serial dilutions in Mueller-Hinton broth. Format: cell-based. How it is done: as §1, §2, §3, §4, §5
In assay [2] the test system is Salmonella typhimurium TA100 (museum strain). The assay is described as follows: MIC, serial dilutions in Mueller-Hinton broth. Format: cell-based. How it is done:
as §1, §2, §3, §4, §5

Assay [3] deals with Pseudomonas aeruginosa ATCC 27853 (museum strain). The experiment in a line: MIC, serial dilutions in Mueller-Hinton broth. Format: cell-based. How it is done:
as §1, §2, §3, §4, §5

Assay [4] concerns Staphylococcus epidermidis (clinical isolate). The assay is described as follows: MIC, serial dilutions in Mueller-Hinton broth. Format: cell-based. Here is the method:
as §1, §2, §3, §4, §5

Assay [5] relates to Staphylococcus aureus ATCC 29213 (museum strain). The experiment in a line: MIC, serial dilutions in Mueller-Hinton broth. It counts as cell-based. How it is done:
as §1, §2, §3, §4, §5

Assay [6] relates to Escherichia coli ATCC 25922 (museum strain). The assay is described as follows: MIC, serial dilutions in Mueller-Hinton broth. It counts as cell-based. How it is done:
as §1, §2, §3, §4, §5

The test system of assay [7] is Micrococcus luteus (clinical isolate). The assay is described as follows: MIC, serial dilutions in Mueller-Hinton broth. It counts as cell-based. Here is the method:
as §1, §2, §3, §4, §5

For assay [8], the system named is gram-positive microorganisms. The experiment in a line: Antibacterial activity (MIC), gram-positive strains. It counts as cell-based. The following applies: in words, versus comparison drugs. Here is the method: as §1, §2
(§6) For the preparation of inoculum (infectious material used for artificial contamination), intended for the study of antibacterial activity, was used a pure daily culture of bacteria grown on a dense nutrient medium (agar LB medium). […] The inoculum was used for 15 minutes after preparation; the purity of the bacterial strains was monitored before each experiment. […]

The test system of assay [9] is microorganism strains under study. The experiment in a line: Antibacterial activity (MIC), whole strain panel. The following applies: in words, from Table 1. It counts as cell-based. Here is the method:
as §1, §2, §6

Setting [10] is: inoculum 10^7 CFU/ml, gram-positive.
Where [11] appears, read: inoculum 10^7 CFU/ml, gram-negative.

Converted amounts (≈) assume the structure as drawn. A value given as a limit tells only on which side of the number the result lay.

Take `CO/N=C(\C(=O)N[C@@H]1C(=O)N2C(C(=O)O)=C(CSc3nc(=O)c(O)nn3C)CS[C@H]12)c1csc(N)n1` [Ceftriaxon, ceftriaxone]: the “The value of the MIC, S. aureus MRSA 2020” value in the assay on S. aureus MRSA 2020 (inoculum 10^7 CFU/ml) came out at 2 µg/mL. In addition, the “The value of the MIC, S. aureus MRSA 1131” value in the assay on S. aureus MRSA 1131 (inoculum 10^7 CFU/ml) was greater than 64 µg/mL. For the same compound, the “The value of the MIC, S. aureus MRSA 1143” value in the assay on S. aureus MRSA 1143 (inoculum 10^7 CFU/ml) is greater than 64 µg/mL. Besides, in the assay on S. aureus MRSA 983 (inoculum 10^7 CFU/ml), the “The value of the MIC, S. aureus MRSA 983” value was greater than 64 µg/mL. For the same compound, in the assay with S. aureus MRSA 1065 (inoculum 10^7 CFU/ml), the “The value of the MIC, S. aureus MRSA 1065” value is greater than 64 µg/mL. For the same compound, the “The value of the MIC, S. aureus MRSA 967” value with S. aureus MRSA 967 (inoculum 10^7 CFU/ml) was greater than 64 µg/mL. Further, the “The value of the MIC, S. aureus MRSA 1053” value with S. aureus MRSA 1053 (inoculum 10^7 CFU/ml) was greater than 64 µg/mL. Further, the “The value of the MIC, S. aureus MRSA 1163” value in the assay with S. aureus MRSA 1163 (inoculum 10^7 CFU/ml) is greater than 64 µg/mL. The “The value of the MIC, S. aureus MRSA 1130” value in the assay with S. aureus MRSA 1130 (inoculum 10^7 CFU/ml) was greater than 64 µg/mL. Further, the “The value of the MIC, S. aureus MRSA 981” value in the assay on S. aureus MRSA 981 (inoculum 10^7 CFU/ml) is greater than 64 µg/mL. Besides, the “The value of the MIC, S. aureus MRSA 1173” value with S. aureus MRSA 1173 (inoculum 10^7 CFU/ml) is greater than 64 µg/mL. Also, in the assay on S. aureus MRSA 1168 (inoculum 10^7 CFU/ml), the “The value of the MIC, S. aureus MRSA 1168” value was determined as 0.5 µg/mL.

Broadly, the MIC is the smallest concentration in the dilution series that meets the test's criterion for growth inhibition. As to `CN[C@H](CC(C)C)C(=O)N[C@H]1C(=O)N[C@@H](CC(N)=O)C(=O)N[C@H]2C(=O)N[C@H]3C(=O)N[C@H](C(=O)N[C@H](C(=O)O)c4cc(O)cc(O)c4-c4cc3ccc4O)[C@H](O)c3ccc(c(Cl)c3)Oc3cc2cc(c3O[C@@H]2O[C@H](CO)[C@@H](O)[C@H](O)[C@H]2O[C@H]2C[C@](C)(N)[C@H](O)[C@H](C)O2)Oc2ccc(cc2Cl)[C@H]1O` [Vancomycin, vancomycin], the MIC with S. aureus MRSA 2020 (Staphylococcus aureus, MRSA, read-out: The value of the MIC, S. aureus MRSA 2020) was 0.5 µg/mL (≈ 0.345 µM); in the assay on S. aureus MRSA 1131 (Staphylococcus aureus, MRSA, read-out: The value of the MIC, S. aureus MRSA 1131) it was 0.5 µg/mL (≈ 0.345 µM); in the assay with S. aureus MRSA 1143 (Staphylococcus aureus, MRSA, read-out: The value of the MIC, S. aureus MRSA 1143), 1 µg/mL (≈ 0.69 µM); with S. aureus MRSA 983 (Staphylococcus aureus, MRSA, read-out: The value of the MIC, S. aureus MRSA 983) it was 2 µg/mL (≈ 1.38 µM); in the assay on S. aureus MRSA 1065 (Staphylococcus aureus, MRSA, read-out: The value of the MIC, S. aureus MRSA 1065) it was 1 µg/mL (≈ 0.69 µM); with S. aureus MRSA 967 (Staphylococcus aureus, MRSA, read-out: The value of the MIC, S. aureus MRSA 967), 4 µg/mL (≈ 2.76 µM). The MIC with S. aureus MRSA 1053 (Staphylococcus aureus, MRSA, read-out: The value of the MIC, S. aureus MRSA 1053) is 2 µg/mL (≈ 1.38 µM); with S. aureus MRSA 1163 (Staphylococcus aureus, MRSA, read-out: The value of the MIC, S. aureus MRSA 1163) it was 2 µg/mL (≈ 1.38 µM); in the assay with S. aureus MRSA 1130 (Staphylococcus aureus, MRSA, read-out: The value of the MIC, S. aureus MRSA 1130), 1 µg/mL (≈ 0.69 µM); in the assay on S. aureus MRSA 981 (Staphylococcus aureus, MRSA, read-out: The value of the MIC, S. aureus MRSA 981) it was 2 µg/mL (≈ 1.38 µM); with S. aureus MRSA 1173 (Staphylococcus aureus, MRSA, read-out: The value of the MIC, S. aureus MRSA 1173), 2 µg/mL (≈ 1.38 µM); with S. aureus MRSA 1168 (Staphylococcus aureus, MRSA, read-out: The value of the MIC, S. aureus MRSA 1168) it was 0.5 µg/mL (≈ 0.345 µM). Besides, the minimum inhibitory concentration (MIC) was 64 µg/mL (≈ 44.2 µM) in assay [1] (Bacillus subtilis, read-out: MIC, B. subtilis); 64 µg/mL (≈ 44.2 µM) in assay [2] (Salmonella enterica, TYPHIMURIUM, read-out: MIC, S. typhimurium); greater than 64 µg/mL in assay [3] (Pseudomonas aeruginosa, ATCC27853, read-out: MIC, P. aerugenosa); 4 µg/mL (≈ 2.76 µM) in [4] (Staphylococcus epidermidis, read-out: MIC, S. epidermidis); 4 µg/mL (≈ 2.76 µM) in [5] (Staphylococcus aureus, ATCC29213, read-out: MIC, S. aureus); 64 µg/mL (≈ 44.2 µM) in [6] (Escherichia coli, ATCC25922, read-out: MIC, E. coli). Also, the MIC in [7] (Micrococcus luteus, read-out: MIC, M. luteus) was found to be 4 µg/mL (≈ 2.76 µM).

As to “1-cyclopropyl-6-fluoro-7-(4-((5-hydroxy-2,4-bis(hydroxymethyl)-6-methylpyridine-3-yl) methyl) piperazinyl)-4-oxo-1,4-dihydroquinolin-3-carboxylic acid [Compound I-9]”, the “antibacterial action with respect to gram-positive microorganisms” value in assay [8] was “comparable with the comparison drugs”. In assay [9], the “antibacterial activity against the microorganism strains under study” value was “most active”. Also, the “MIC, B. subtilis” value in assay [1] (setting [10]) came to 4 µg/mL. Also, the “MIC, S. typhimurium” value in [2] (setting [11]) is 4 µg/mL. The “MIC, P. aerugenosa” value in assay [3] (setting [11]) was greater than 64 µg/mL. Besides, in [4] (setting [10]), the “MIC, S. epidermidis” value amounted to 8 µg/mL. Moreover, the “MIC, S. aureus” value in assay [5] (setting [10]) came out at 0.5 µg/mL. Moreover, in assay [6] (setting [11]), the “MIC, E. coli” value was determined as 64 µg/mL. Moreover, the “MIC, M. luteus” value in [7] (setting [10]) came out at 2 µg/mL.

(Values after patent publication US10759810B2 (AO “TATKHIMFARMPREPARATY”, priority 2016, dated 2020).)
